The numbers were not newly measured in patent publication US20240310266A1, “BIOMARKERS FOR CANCER AND METHODS OF USE THEREOF” (Novartis AG, priority 2021, published 2024), which cites them from elsewhere.

For the data set the following is noted: rats.

In the case of `CC(C)(C)c1nc(-c2cccc(NS(=O)(=O)c3c(F)cccc3F)c2F)c(-c2ccnc(N)n2)s1` [dabrafenib, N-{3-[5-(2-aminopyrimidin-4-yl)-2-tert-butyl-1,3-thiazol-4-yl]-2-fluorophenyl}-2,6-difluorobenzenesulfonamide], the proliferative skin lesions entry is “proliferative skin lesions observed”.
